Results on 14 compounds are retold here after patent US4868190A, “N-pyridinyl-9H-carbazol-9-amines” (Hoechst-Roussel Pharmaceuticals, Inc., priority 1988, dated 1989).

In test [1] the test system is scopolamine induced memory deficit. The experiment in a line: Dark Avoidance Assay (scopolamine-induced memory deficit). In kind it is in vivo. The note with it: mice, 24 hours. On the procedure: In this assay mice are tested for their ability to remember an unpleasant stimulus for a period of 24 hours. A mouse is placed in a chamber that contains a dark compartment; a strong incandescent light drives it to the dark compartment, where an electric shock is administered through metal plates on the floor. The animal is removed from the testing apparatus and tested again, 24 hours later, for the ability to remember the electric shock. If scopolamine, an anticholinergic that is known to cause memory impairment, is administered before an animal's initial exposure to the test chamber, the animal re-enters the dark compartment shortly after being placed in the test chamber 24 hours later.

The test system of test [2] is sensitivity of mice to pressure stress (artery clip on tail). The experiment in a line: Modified Haffner's analgesia (artery clip on tail). Format: in vivo, mice (male, Charles River, CD-1). The note with it: Mus musculus, sc, read-out: Modified Haffner's Analgesia ED50. The source says:
The latter assay is used to evaluate analgesic activity by measuring drug-induced changes in the sensitivty of mice to pressure stress by placing an artery clip (21/2 inches long) on their tail. The procedure used is a modification of the test developed by Haffner, Dtsch. Med. Wschr. 55, 731 (1929), and it is described below:
Male mice (Charles River, CD-1) from 18-30 grams are used for the test. An artery clip is applied to the root of the tail of a mouse (approximately 1/2 inch from the body) to induce pain. The animals quickly responds to this noxious stimuli by biting the clip or the location of the clip. This reaction time, the interval between stimulus onset and response, is recorded on 1/10 second increments by a stop watch.
For a time response, the screening dose (25 mg/kg) is administered subcutaneously (10 ml/kg) to the animal receiving food and water ad libitum before testing. Animals receiving the compound orally are fasted 18-24 hours before drug administration. Drug to be tested is prepared with distilled water and if insoluble, one drop of a surfactant is added.
Twenty-eight animals (seven/group) are administered the drug 15, 30, 45 and 60 minutes prior to testing.
The cut-off time (CO) is determined by taking the (x) average+3 standard (SD) deviation of the combined response latencies of the control mice in all time periods.
Any reaction time, in subsequent drug tests, which is greater than the CO (for the same time period) therefore exceeds 99% of normal Gaussian distribution and is called "positive response" indicative of analgesic activity. A time response indicates the period of greatest analgesic effect after dosing. The ED50 is determined at the peak time of drug activity. A minimum of three dose groups are used. ED50 's are calcualted using computer analysis.

Test [3] deals with tetrabenazine-induced ptosis. The experiment in a line: Prevention of Tetrabenazine-Induced Ptosis in Mice. Format: in vivo, mice (male). The note with it: Mus musculus, po, read-out: Antidepressant activity ED50. The source says:
The test method and results are described below.
Tetrabenazine (TBZ) induces behavioral depression with concomitant ptosis in mice similar to reserpine. Antidepressant compounds, both monoamineoxidase inhibitors and tricyclics, are known to prevent or antagonize these effects and the degree of antagonism correlates with clinical efficacy. The prevention of […] ptosis in mice is used as a preliminary screen for possible antidepressant activity. The method used in this invention is as follows:
Male mice weighing 20 to 30 grams are used in test groups of five subjects. All compounds are dissolved or suspended with a suitable surfactant in distilled water and administered in volumes of 10 ml/kg of body weight. TBZ solution is made from the methanesulfonate salt and the concentration is adjusted to enable administration of 60 mg/kg of base by intraperitoneal (i.p.) injection.
The pretreatment time is measured from the time of dosing to observation. Therefore, when a 30-minute pretreat is utilized, drug and TBZ are given simultaneously. A control group received solvent and TBZ at intervals identical to drug group. For a primary screen, the drug is administered i.p. and a group size of five is utilized. Eight animals/group are used for a dose range.
The total score for each group of five in a primary screen will, therefore, be from 0 to 20 and these scores are used as indications of drug activity.
The vehicle control group score is used as a determinant of the validity of each test. […] The calculation of percent inhibition of ptosis is: [formula]

Test [4] has as its system 2-phenyl-1,4-benzoquinone-induced writhing. The experiment in a line: 2-phenyl-1,4-benzoquinone-induced writhing (PQW) test in mice. Format: in vivo. The note with it: Mus musculus, sc, read-out: PQW ED50. The source says: Compounds I of the present invention are useful as analgesic agents due to their ability to alleviate pain in mammals. […] Exptl. Biol. Med., 95, 729 (1957)] and in modified Haffner's analgesia.

For test [5], the system named is supramaximal electroshock (extensor tonus). The experiment in a line: Anticonvulsant activity, supramaximal electroshock (SES) assay. In kind it is in vivo. The note with it: ip; male mouse, at peak activity time. The protocol:
Compounds I of the present invention are also useful as anticonvulsant agents due to their anticonvulsant activity in mammals. Anticonvulsant activity is measured in the male mouse using the supramaximal electroshock (SES) assay described in Arch. Int. Pharmacodyn. 92:97-107, 1952. In this procedure groups of animals are used. Drugs are prepared using distilled water and, if insoluble, a surfactant is added. Control animals receive vehicle. Drugs are routinely administered intraperitoneally (i.p.). The dosage volume is 10 ml/kg. A primary screen is given a 30 minute pretreat. The animal's eyes are placed across the output terminals of an A.C. shocker that delivers 206 volts rms for 300 msec. Electrode paste coats the animals eyes at the point of contact with the terminals. […] Protection is expressed as normalized percent inhibition relative to vehicle control.
A time response is carried out using six animals/group. Animals are tested at 30, 60 and 120 minutes postdrug. Additional time periods are tested if indicated by previous tests. When the peak activity time has been determined, a dose response is initiated using 10 animals/group at that time period. The ED50 and 95% confidence interval are calculated by computer probit analysis.
(The maximal electroshock test induces tonic seizures with an electrical stimulus.)

Where [6] appears, read: mice, s.c., at peak time of drug activity.

Each structure is given as a SMILES string. Where two headings read alike, the source gives them in different places.

Turning to `Brc1ccc2c(c1)c1ccccc1n2Nc1ccncc1.O=C(O)/C=C\C(=O)O` [3-Bromo-N-(4-pyridinyl)-9H-carbazol-9-amine maleate], the “% of animals with scopolamine induced memory deficit reversal” value (from here on “% of animals”) in test [1] (dose 0.31 mg/kg body weight) amounted to 33%. Also, the ED50 in test [2] (setting [6]) came out at 1.1 mg/kg; in test [3] (mice, p.o., TBZ 60 mg/kg i.p.) it was 7.6 mg/kg; in test [4] (mice, s.c.), 1.2 mg/kg.
Take `O=C1CC2(CCCC2)CC(=O)N1CCCCN(c1ccncc1)n1c2ccccc2c2ccccc21` [8-[4-(9H-carbazol-9-yl-4-pyridinylamino)butyl]-8-azaspiro[4.5]decane-7,9-dione]: the “% of animals” value in test [1] (dose 5.0 mg/kg body weight) is 60%.
Turning to `CNC1=Nc2ccc(Cl)cc2C(c2ccccc2)=[N+]([O-])C1` [Chlordiazepoxide, reference compound], in test [5], the ED50 amounted to 8 mg/kg.
For the compound `CNCCCN1c2ccccc2CCc2ccccc21` [Desipramine, reference compound], the 50% effective dose (ED50) in test [3] worked out at 2.3 mg/kg.
`C=CCN(c1ccncc1)n1c2ccccc2c2ccccc21.O=C(O)/C=C\C(=O)O` [N-(2-Propenyl)-N-(4-pyridinyl)-9H-carbazol-9-amine maleate]: the ED50 in test [2] (setting [6]) was found to be 1.2 mg/kg; in test [3] (mice, p.o., TBZ 60 mg/kg i.p.), 3.7 mg/kg; in test [4] (mice, s.c.), 1 mg/kg.
Take `Cl.Fc1cnccc1Nn1c2ccccc2c2ccccc21` [N-(3-Fluoro-4-pyridinyl)-9H-carbazol-9-amine hydrochloride]: the ED50 amounted to 0.7 mg/kg in test [2] (setting [6]) and 1.3 mg/kg in test [4] (mice, s.c.).
Turning to `CCCN(c1ccncc1F)n1c2ccccc2c2ccccc21` [N-(3-Fluoro-4-pyridinyl)-N-propyl-9H-carbazol-9-amine], the “% of animals” value in test [1] (dose 1.25 mg/kg body weight) was 27%.
For `O=C(O)/C=C\C(=O)O.c1ccc2c(c1)c1ccccc1n2Nc1ccncc1` [N-(4-Pyridinyl)-9H-carbazol-9-amine maleate], the ED50 was 0.4 mg/kg in test [2] (setting [6]); 2.3 mg/kg in test [3] (mice, p.o., TBZ 60 mg/kg i.p.); 23.4 mg/kg in test [5]; 0.5 mg/kg in test [4] (mice, s.c.).
With `CCCCN(c1ccncc1)n1c2ccccc2c2ccccc21.Cl` [N-(Butyl)-N-(4-pyridinyl)-9H-carbazol-9-amine hydrochloride], in test [1] (dose 0.63 mg/kg body weight), the “% of animals” value is on record as 33%. In addition, the ED50 in test [3] (mice, p.o., TBZ 60 mg/kg i.p.) worked out at 5.2 mg/kg.
Consider `CCCN(c1ccncc1)n1c2ccccc2c2ccccc21.O=C(O)/C=C\C(=O)O` [N-(Propyl)-N-(4-pyridinyl)-9H-carbazol-9-amine maleate], for which, in test [1] (dose 2.5 mg/kg body weight), the “% of animals” value stood at 33%. Also, the median effective dose (ED50) in test [2] (setting [6]) came to 9.8 mg/kg; in test [3] (mice, p.o., TBZ 60 mg/kg i.p.), 1.5 mg/kg; in test [5], 16.9 mg/kg; in test [4] (mice, s.c.) it was 4.3 mg/kg.
As to `CCN(c1ccncc1)n1c2ccccc2c2ccccc21.O=C(O)/C=C\C(=O)O` [N-Ethyl-N-(4-pyridinyl)-9H-carbazol-9-amine maleate], the ED50 in test [2] (setting [6]) was 4.3 mg/kg; in test [3] (mice, p.o., TBZ 60 mg/kg i.p.), 2.2 mg/kg; in test [5], 6.4 mg/kg; in test [4] (mice, s.c.) it was 1.1 mg/kg.
As to `CN(c1ccncc1)n1c2ccccc2c2ccccc21.O=C(O)/C=C\C(=O)O` [N-Methyl-N-(4-pyridinyl)-9H-carbazol-9-amine maleate], the ED50 in test [2] (setting [6]) amounted to 0.19 mg/kg; in test [3] (mice, p.o., TBZ 60 mg/kg i.p.), 1.5 mg/kg; in test [4] (mice, s.c.) it was 0.1 mg/kg.
For the compound `CC(C)=CCN1CCC2(C)c3cc(O)ccc3CC1C2C` (stereo not shown) [Pentazocin, reference compound], the ED50 in test [2] is 3.9 mg/kg; in test [4], 1.3 mg/kg.
For `CNC(=O)Oc1ccc2c(c1)[C@]1(C)CCN(C)[C@@H]1N2C` [Physostigmine, reference compound], the “% of animals” value in test [1] (dose 0.31 mg/kg body weight) is on record as 20%.

For orientation: ED50 means the midpoint of the dose-response relation.
